Measurements published in BigSolDB 2.1.

CC(C(=O)O)c1ccc2c(c1)CC(=O)c1ccccc1S2 (stereo not drawn)
solubility (mole fraction)
Conditions	278.15 K	283.15 K	288.15 K	293.15 K	298.15 K	303.15 K	308.15 K	313.15 K	318.15 K	323.15 K
in 1,4-dioxane	–	–	0.0923	0.103	0.114	0.127	0.142	0.157	0.173	0.19
in 2-ethoxyethanol	0.0373	0.0458	0.0518	0.0596	0.0677	0.0779	0.0911	0.106	0.12	0.136
in 2-methoxyethanol	0.0278	0.036	0.0437	0.0516	0.0619	0.074	0.0878	0.102	0.119	0.138
in ethanol	0.00265	0.00396	0.00522	0.0071	0.00956	0.012	0.0166	0.0222	0.03	0.0418
in ethyl acetate	0.00812	0.00951	0.0112	0.0131	0.0154	0.0176	0.0216	0.0256	0.0304	0.0362
